Measurements taken from patent publication US5840684A, “Glycopeptide antibiotic derivatives” (Eli Lilly and Company, priority 1995, dated 1998).
In brackets after ≈: the same amount, converted by molar mass.

What was measured:
[1] = system: Staphylococcus aureus S13E; format: cell-based
Experimental: (§1) The MIC's were determined using a standard broth micro-dilution assay.

[2] = system: Staphylococcus aureus SA1199B; format: cell-based
Experimental: as §1

[3] = system: Entercoccus faecium 180-1; assay: broth micro-dilution MIC; format: cell-based
Experimental: as §1

Entercoccus faecium 276 = assay: broth micro-dilution MIC; format: cell-based
Experimental: as §1

[4] = system: Staphylococcus aureus 446; assay: broth micro-dilution MIC; format: cell-based
Experimental: as §1

[5] = system: Staphylococcus aureus 447; assay: broth micro-dilution MIC; format: cell-based
Experimental: as §1

[6] = system: Staphylococcus aureus 489; assay: broth micro-dilution MIC; format: cell-based
Experimental: as §1

[7] = system: Staphylococcus aureus 491; assay: broth micro-dilution MIC; format: cell-based
Experimental: as §1

[8] = system: Staphylococcus aureus SA1199A; assay: broth micro-dilution MIC; format: cell-based
Experimental: as §1

[9] = system: Staphylococcus aureus SA1199; assay: broth micro-dilution MIC; format: cell-based
Experimental: as §1

[10] = system: Staphylococcus aureus X400; assay: broth micro-dilution MIC; format: cell-based
Experimental: as §1

[11] = system: Staphylococcus aureus X778; assay: broth micro-dilution MIC; format: cell-based
Experimental: as §1

[12] = system: Streptococcus pyogenes C203; assay: broth micro-dilution MIC; format: cell-based
Experimental: as §1

Entercoccus faecium 180 = assay: broth micro-dilution MIC; format: cell-based; conditions: Entercoccus faecium 180
Experimental: (§2) The formula I compounds have in vitro and in vivo activity against Gram-positive pathogenic bacteria. The MIC's were determined using a standard broth micro-dilution assay.

Entercoccus faecium 2041 = assay: broth micro-dilution MIC; format: cell-based; conditions: Entercoccus faecium 2041
Experimental: as §2

[13] = system: Enterococcus gallinarum 245; assay: broth micro-dilution MIC; format: cell-based; conditions: Enterococcus gallinarum 245
Experimental: as §2

[14] = system: Haemophilus influenzae RD; assay: broth micro-dilution MIC; format: cell-based; conditions: Haemophilus influenzae RD
Experimental: as §2

[15] = system: Staphylococcus epidermidis 270; assay: broth micro-dilution MIC; format: cell-based
Experimental: as §2

[16] = system: Staphylococcus haemolyticus 105; assay: broth micro-dilution MIC; format: cell-based
Experimental: as §2

[17] = system: Staphylococcus haemolyticus 415; assay: broth micro-dilution MIC; format: cell-based
Experimental: as §2

[18] = system: Streptococcus pneumoniae P1; assay: broth micro-dilution MIC; format: cell-based
Experimental: as §2

[19] = system: vancomycin-resistant enterococci; assay: broth micro-dilution, mean geometric MIC; format: cell-based, Enterococcus faecium and Enterococcus faecalis; conditions: enterococci, 24-hour incubation
[20] = system: vancomycin-susceptible enterococci; assay: broth micro-dilution, mean geometric MIC; format: cell-based, Enterococcus faecium and Enterococcus faecalis; conditions: enterococci, 24-hour incubation

## CNC(CC(C)C)C(=O)NC1C(=O)NC(CC(N)=O)C(=O)NC2C(=O)NC3C(=O)NC(C(=O)NC(C(=O)O)c4cc(O)cc(O)c4-c4cc3ccc4O)C(OC3CC(C)(N)C(O)C(C)O3)c3ccc(c(Cl)c3)Oc3cc2cc(c3OC2OC(CO)C(O)C(O)C2OC2CC(C)(NCc3c4ccccc4c(C)c4ccccc34)C(O)C(C)O2)Oc2ccc(cc2Cl)C1O (stereo not shown) [Compound 17]
[1]
  MIC: 1 µg/mL (≈ 0.557 µM)
[2]
  MIC: 1 µg/mL (≈ 0.557 µM)
[3]
  MIC: ≤ 0.06 µg/mL
Entercoccus faecium 276
  MIC: 0.5 µg/mL (≈ 0.278 µM)
[4]
  MIC: 2 µg/mL (≈ 1.11 µM)
[5]
  MIC: 8 µg/mL (≈ 4.45 µM)
[6]
  MIC: 1 µg/mL (≈ 0.557 µM)
[7]
  MIC: 2 µg/mL (≈ 1.11 µM)
[8]
  MIC: ≤ 0.06 µg/mL
[9]
  MIC: 4 µg/mL (≈ 2.23 µM)
[10]
  MIC: 0.5 µg/mL (≈ 0.278 µM)
[11]
  MIC: 0.5 µg/mL (≈ 0.278 µM)
[12]
  MIC: ≤ 0.06 µg/mL
Entercoccus faecium 180
  MIC: 2 µg/mL (≈ 1.11 µM)
Entercoccus faecium 2041
  MIC: 0.25 µg/mL (≈ 0.139 µM)
[13]
  MIC: 0.5 µg/mL (≈ 0.278 µM)
[14]
  MIC: 32 µg/mL (≈ 17.8 µM)
[15]
  MIC: 4 µg/mL (≈ 2.23 µM)
[16]
  MIC: 8 µg/mL (≈ 4.45 µM)
[17]
  MIC: 8 µg/mL (≈ 4.45 µM)
[18]
  MIC: ≤ 0.06 µg/mL
[19]
  mean geometric MIC, Vancomycin Resistant Strains: 9.5 µg/mL
[20]
  mean geometric MIC, Vancomycin Sensitive Strains: 0.38 µg/mL

## CNC(CC(C)C)C(=O)NC1C(=O)NC(CC(N)=O)C(=O)NC2C(=O)NC3C(=O)NC(C(=O)NC(C(=O)O)c4cc(O)cc(O)c4-c4cc3ccc4O)C(OC3CC(C)(N)C(O)C(C)O3)c3ccc(c(Cl)c3)Oc3cc2cc(c3OC2OC(CO)C(O)C(O)C2OC2CC(C)(NCc3ccc(Oc4ccc(Cl)c(Cl)c4)cc3)C(O)C(C)O2)Oc2ccc(cc2Cl)C1O (stereo not shown) [Compound 81]
[1]
  MIC: 0.5 µg/mL (≈ 0.271 µM)
[2]
  MIC: 1 µg/mL (≈ 0.542 µM)
Entercoccus faecium 276
  MIC: ≤ 0.06 µg/mL
[4]
  MIC: 2 µg/mL (≈ 1.08 µM)
[5]
  MIC: 2 µg/mL (≈ 1.08 µM)
[6]
  MIC: 2 µg/mL (≈ 1.08 µM)
[7]
  MIC: 1 µg/mL (≈ 0.542 µM)
[8]
  MIC: 0.5 µg/mL (≈ 0.271 µM)
[9]
  MIC: 2 µg/mL (≈ 1.08 µM)
[10]
  MIC: 1 µg/mL (≈ 0.542 µM)
[11]
  MIC: 1 µg/mL (≈ 0.542 µM)
[12]
  MIC: ≤ 0.06 µg/mL
Entercoccus faecium 180
  MIC: ≤ 0.06 µg/mL
Entercoccus faecium 2041
  MIC: ≤ 0.06 µg/mL
[13]
  MIC: 0.25 µg/mL (≈ 0.136 µM)
[14]
  MIC: 16 µg/mL (≈ 8.68 µM)
[15]
  MIC: 1 µg/mL (≈ 0.542 µM)
[16]
  MIC: 1 µg/mL (≈ 0.542 µM)
[17]
  MIC: 4 µg/mL (≈ 2.17 µM)
[18]
  MIC: ≤ 0.06 µg/mL
[19]
  mean geometric MIC, Vancomycin Resistant Strains: 1.0 µg/mL
[20]
  mean geometric MIC, Vancomycin Sensitive Strains: 0.042 µg/mL

## CNC(CC(C)C)C(=O)NC1C(=O)NC(CC(N)=O)C(=O)NC2C(=O)NC3C(=O)NC(C(=O)NC(C(=O)O)c4cc(O)cc(O)c4-c4cc3ccc4O)C(OC3CC(C)(N)C(O)C(C)O3)c3ccc(c(Cl)c3)Oc3cc2cc(c3OC2OC(CO)C(O)C(O)C2OC2CC(C)(NCc3c4c(cc5ccccc35)CCCC4)C(O)C(C)O2)Oc2ccc(cc2Cl)C1O (stereo not shown) [Compound 156]
[1]
  MIC: 1 µg/mL (≈ 0.56 µM)
[2]
  MIC: 0.5 µg/mL (≈ 0.28 µM)
[3]
  MIC: ≤ 0.06 µg/mL
Entercoccus faecium 276
  MIC: 2 µg/mL (≈ 1.12 µM)
[4]
  MIC: 2 µg/mL (≈ 1.12 µM)
[5]
  MIC: 1 µg/mL (≈ 0.56 µM)
[6]
  MIC: 1 µg/mL (≈ 0.56 µM)
[7]
  MIC: 1 µg/mL (≈ 0.56 µM)
[8]
  MIC: ≤ 0.06 µg/mL
[9]
  MIC: 1 µg/mL (≈ 0.56 µM)
[10]
  MIC: 2 µg/mL (≈ 1.12 µM)
[11]
  MIC: 1 µg/mL (≈ 0.56 µM)
[12]
  MIC: ≤ 0.06 µg/mL
Entercoccus faecium 180
  MIC: 1 µg/mL (≈ 0.56 µM)
Entercoccus faecium 2041
  MIC: 0.5 µg/mL (≈ 0.28 µM)
[13]
  MIC: 2 µg/mL (≈ 1.12 µM)
[14]
  MIC: 2 µg/mL (≈ 1.12 µM)
[15]
  MIC: 1 µg/mL (≈ 0.56 µM)
[16]
  MIC: 4 µg/mL (≈ 2.24 µM)
[17]
  MIC: 2 µg/mL (≈ 1.12 µM)
[18]
  MIC: ≤ 0.06 µg/mL
[19]
  mean geometric MIC, Vancomycin Resistant Strains: 5.7 µg/mL
[20]
  mean geometric MIC, Vancomycin Sensitive Strains: 0.17 µg/mL

## CNC(CC(C)C)C(=O)NC1C(=O)NC(CC(N)=O)C(=O)NC2C(=O)NC3C(=O)NC(C(=O)NC(C(=O)O)c4cc(O)cc(O)c4-c4cc3ccc4O)C(OC3CC(C)(N)C(O)C(C)O3)c3ccc(c(Cl)c3)Oc3cc2cc(c3OC2OC(CO)C(O)C(O)C2OC2CC(C)(NCCCCc3ccc(OC)cc3)C(O)C(C)O2)Oc2ccc(cc2Cl)C1O (stereo not shown) [Compound 172]
[1]
  MIC: ≤ 0.06 µg/mL
[2]
  MIC: ≤ 0.06 µg/mL
[3]
  MIC: ≤ 0.06 µg/mL
Entercoccus faecium 276
  MIC: 0.125 µg/mL (≈ 0.0712 µM)
[4]
  MIC: 4 µg/mL (≈ 2.28 µM)
[5]
  MIC: 0.5 µg/mL (≈ 0.285 µM)
[6]
  MIC: 0.5 µg/mL (≈ 0.285 µM)
[7]
  MIC: 0.5 µg/mL (≈ 0.285 µM)
[8]
  MIC: ≤ 0.06 µg/mL
[9]
  MIC: 1 µg/mL (≈ 0.57 µM)
[10]
  MIC: 0.5 µg/mL (≈ 0.285 µM)
[11]
  MIC: 2 µg/mL (≈ 1.14 µM)
[12]
  MIC: ≤ 0.06 µg/mL
Entercoccus faecium 180
  MIC: 0.5 µg/mL (≈ 0.285 µM)
Entercoccus faecium 2041
  MIC: ≤ 0.06 µg/mL
[13]
  MIC: 2 µg/mL (≈ 1.14 µM)
[14]
  MIC: 32 µg/mL (≈ 18.2 µM)
[15]
  MIC: 0.5 µg/mL (≈ 0.285 µM)
[16]
  MIC: 0.25 µg/mL (≈ 0.142 µM)
[17]
  MIC: 2 µg/mL (≈ 1.14 µM)
[18]
  MIC: ≤ 0.06 µg/mL
[19]
  mean geometric MIC, Vancomycin Resistant Strains: 3.4 µg/mL
[20]
  mean geometric MIC, Vancomycin Sensitive Strains: 0.13 µg/mL

## CNC(CC(C)C)C(=O)NC1C(=O)NC(CC(N)=O)C(=O)NC2C(=O)NC3C(=O)NC(C(=O)NC(C(=O)O)c4cc(O)cc(O)c4-c4cc3ccc4O)C(OC3CC(C)(N)C(O)C(C)O3)c3ccc(c(Cl)c3)Oc3cc2cc(c3OC2OC(CO)C(O)C(O)C2OC2CC(C)(NCc3ccc(-c4ccccc4)cc3)C(O)C(C)O2)Oc2ccc(cc2)C1O (stereo not shown) [Compound 185]
[1]
  MIC: ≤ .06 µg/mL
[2]
  MIC: ≤ .06 µg/mL
[3]
  MIC: ≤ .06 µg/mL
Entercoccus faecium 276
  MIC: ≤ .06 µg/mL
[4]
  MIC: ≤ .06 µg/mL
[5]
  MIC: ≤ .06 µg/mL
[6]
  MIC: ≤ .06 µg/mL
[7]
  MIC: ≤ .06 µg/mL
[8]
  MIC: ≤ .06 µg/mL
[9]
  MIC: ≤ .06 µg/mL
[10]
  MIC: ≤ .06 µg/mL
[11]
  MIC: ≤ .06 µg/mL
[12]
  MIC: ≤ .06 µg/mL
Entercoccus faecium 180
  MIC: 0.125 µg/mL (≈ 0.0725 µM)
Entercoccus faecium 2041
  MIC: ≤ .06 µg/mL
[13]
  MIC: ≤ .06 µg/mL
[14]
  MIC: 8 µg/mL (≈ 4.64 µM)
[15]
  MIC: ≤ .06 µg/mL
[16]
  MIC: ≤ .06 µg/mL
[17]
  MIC: ≤ .06 µg/mL
[18]
  MIC: ≤ .06 µg/mL
[19]
  mean geometric MIC, Vancomycin Resistant Strains: 4.7 µg/mL
[20]
  mean geometric MIC, Vancomycin Sensitive Strains: 0.060 µg/mL

## CC#CCCCCCCCCCCNC1(C)CC(OC2C(Oc3c4cc5cc3Oc3ccc(cc3Cl)C(OC3CC(C)(N)C(O)C(C)O3)C3NC(=O)C(NC(=O)C5NC(=O)C(CC(N)=O)NC(=O)C(NC(=O)C(CC(C)C)NC)C(O)c5ccc(c(Cl)c5)O4)c4ccc(O)c(c4)-c4c(O)cc(O)cc4C(C(=O)O)NC3=O)OC(CO)C(O)C2O)OC(C)C1O (stereo not shown) [Compound 199]
[1]
  MIC: 0.5 µg/mL (≈ 0.282 µM)
[2]
  MIC: 1 µg/mL (≈ 0.565 µM)
[3]
  MIC: ≤ 0.06 µg/mL
Entercoccus faecium 276
  MIC: 1 µg/mL (≈ 0.565 µM)
[4]
  MIC: 0.5 µg/mL (≈ 0.282 µM)
[5]
  MIC: 1 µg/mL (≈ 0.565 µM)
[6]
  MIC: 2 µg/mL (≈ 1.13 µM)
[7]
  MIC: 0.5 µg/mL (≈ 0.282 µM)
[9]
  MIC: 1 µg/mL (≈ 0.565 µM)
[10]
  MIC: 2 µg/mL (≈ 1.13 µM)
[11]
  MIC: 1 µg/mL (≈ 0.565 µM)
[12]
  MIC: ≤ 0.06 µg/mL
Entercoccus faecium 180
  MIC: 0.5 µg/mL (≈ 0.282 µM)
Entercoccus faecium 2041
  MIC: ≤ 0.06 µg/mL
[13]
  MIC: 4 µg/mL (≈ 2.26 µM)
[14]
  MIC: 32 µg/mL (≈ 18.1 µM)
[15]
  MIC: 0.5 µg/mL (≈ 0.282 µM)
[16]
  MIC: 2 µg/mL (≈ 1.13 µM)
[17]
  MIC: 4 µg/mL (≈ 2.26 µM)
[18]
  MIC: ≤ 0.06 µg/mL
[19]
  mean geometric MIC, Vancomycin Resistant Strains: 1.4 µg/mL
[20]
  mean geometric MIC, Vancomycin Sensitive Strains: 0.036 µg/mL
